Structures can show the parent of a compound that is named as a salt.
Columns and labels:
Format in all cases: in vivo
obese hyperglycemia mice = assay: Body weight and blood glucose of obese hyperglycemia mice
Experimental: 9-week-old obese mice of hyperglycemia were randomly divided into: rhein sodium group, non-treatment group, rosiglitazone group, rhein lysine high-dose group and low-dose group, each group has 6 mice. Kunming mice of the same age were used as the control group, which were fed by conventional feedstuff with free food and water feeding. Rhein lysine conjugates [the dose is 180 mg/kg (0.418 mmol/kg) and 90 mg/kg (0.209 mmol/kg) for intragastric infusion, prepared with distilled water], dose of the rhein sodium group is 130 mg/kg (0.424 mmol/kg), the mixture was dissolved with distilled water, intragastric administration; rosiglitazone group (the dose is 4 mg/kg), the mixture was dissolved with distilled water, intragastric administration, and the rats of the other two groups were administered with the same volume of distilled water, once a day, 12 weeks of administration in succession. The animals' body weight and blood sugar were measured regularly, and statistical analysis was conducted.

mice [1] = assay: Capillary permeability of mice; conditions: dosage 12 mg/kg
Experimental: Each group has 12 mice, administration: 0.20 ml/10 g. Mice in the model control group were administrated with isovolumic physiologic saline.

rats [2] = assay: Formation of cotton ball granuloma in rats (Example 59 Test 2); conditions: 12 mg/kg intragastric, two weeks
Experimental: Rats were randomly divided into five groups (model control group, indomethacin group, rhein glucosamine large dose group and low dose group and rhein sodium group). Each group included 10 rats, and built models according to the method in the literature [Xu Shuyun, Methodology in Pharmacological Experiment (the 3rd version): 918]. The rats were administered by medicines from the day when starting the operation. […] The rats were killed in two weeks, and tests were performed according to the methods in the literature, the net weight of granulation was calculated, and t test was used for the intergroup comparison.

mice [3] = assay: Intestinal propulsion in mice; conditions: dosage 12 mg/kg, intravenous injection
Experimental: Fifty mice, male, weighting from 18 to 22 g, were randomly divided into five groups, namely, model control group, domperidone group, rhein sodium group, rhein glucosamine large dose group and low dose group.
Each group has 10 mice respectively. The mice were fasted, but water was not prohibited, and then administered with medicines by intravenous injection. After that, tests were carried on immediately according to the methods in the literature[Xu Shuyun, Methodology in Pharmacological Experiment (the 3rd version): 1313]. The intestinal propulsive rates were calculated, and t test was used for the intergroup comparison.

rats [4] = assay: Intestinal adhesion in rats; conditions: 6 mg/kg once a day, 7th day
Experimental: Rats were fasted for 12 h and models were built according to the methods in the literature [Xu Shuyun, Methodology in Pharmacological Experiment (the 3rd version): 1335]. The rats were randomly divided into five groups, namely, model control group, dexamethasone group, rhein sodium group, rhein glucosamine large dose group and low dose group. Each group included 12 rats. […] The rats of the model group were administered with the same volume of NS, while the rats of the positive control group were administered with dexamethasone, administered once every two days, dose: 10 mg/kg. The administration volume was the same as the treatment group. The rats were killed on the 7th day and carried on laparotomy. Adhesion degree was classified and scored respectively. The classification and score of the observed index-adhesion degree can refer to the five-grade classification method prepared by Nair, and determine the classification standard, see Schedule 13. Intestinal adhesion classification adopts Ridit analysis. The test results are as follows (Table 14): […]

mice [5] = assay: Xylene-induced swelling of auricle in mice; conditions: ig 40 mg/kg, 3 days
Experimental: Fifty male Kunming mice were selected, weighing 18-22 g each, and randomly divided into five groups, namely, model control group, aspirin group, rhein sodium group, rhein glucosamine large dose group and low dose groups. Each group had 10 mice respectively. The mice were administered with medicines by intragastric administration every day, for 0.2 ml/10 g body weight. The mice of the model control group were administered with equal volume of physiological saline, once every day, continuously administration for 3 days. After 60 minutes of the final administration, carried on test according to the method in the literature [Xu Shuyun, Methodology in Pharmacological Experiment (the 3rd version): 911]. The sweeling degree of auricle was calculated and statistical analysis was conducted.

rats [6] = assay: Carrageenan-induced acute pleurisy exudation and leukoplania in rats; conditions: intraperitoneal 20 mg/kg, four hours after carrageenan
Experimental: Forty male rats of 200±20 g weight were selected and divided into five groups, namely, model control group, indomethacin group, rhein sodium group, rhein glucosamine large dose group and small dose group. Eight rats for each group. The rats were administered with medicines by intraperitoneal administration, one hour later, the rats were induced with acute pleurisy by carrageenan according to the method in the literature [Xu Shuyun, Methodology in Pharmacological Experiment (the 3rd version): 916]. Four hours later, the rats were killed and the volume of pleural effusion and total white cell count were measured.

mice [7] = assay: Immune function in mice (clearance index, phagocytic index); conditions: ig 40 mg/kg, 3 days
Experimental: Fifty Kunming mice, half male and half female, weighing 18-22 g each were selected and randomly divided into five groups, namely, model control group, cyclophosphamide group, rhein sodium group, rhein glucosamine large dose group and small dose group, 10 mice for each group. The mice were administered with medicines by intragastric administration, 0.2 ml/10 g body weight, once every day and administered for 3 days in succession. After the mice were administered with medicines, 30 minutes later, test was carried on according to the method in the literature [Xu Shuyun, Methodology in Pharmacological Experiment (the 3rd version): 934]. The […] and corrected phagocytic index α were calculated, and t-test was conducted for statistical analysis.

rats [8] = assay: Formation of granuloma in rats (arthritis example, test 4); conditions: 20 mg/kg intragastric, two weeks
Experimental: Rats were randomly divided into five groups (model control group, indomethacin group, rhein glucosamine large dose group and small dose group and rhein sodium group). Each group has 10 […]. According to the method in the literature [Xu Shuyun, Methodology in Pharmacological Experiment (the 3rd version): 918], the models were built, and the rats were administered with medicines since the day when starting operations. […] Two weeks later, the rats were killed and test was carried on according to the method in the literature. The net weight of granulation was calculated, and t test was used for the intergroup comparison.

[9] = baseline of group given ig 130 mg/kg once a day

O=C(O)c1cc(O)c2c(c1)C(=O)c1cccc(O)c1C2=O [Rhein sodium salt, rhein sodium salt]
Blood glucose prior to administration (obese hyperglycemia mice; [9]): 28.9 ± 4.8 mmol/L
Body weight prior to administration (obese hyperglycemia mice; [9]): 28.9 ± 1.8 g
Blood glucose 6 w after administration (obese hyperglycemia mice; ig 130 mg/kg once a day): 31.2 ± 5.5 mmol/L
Blood glucose 9 w after administration (obese hyperglycemia mice; ig 130 mg/kg once a day): 33.5 ± 5.4 mmol/L
Blood glucose 12 w after administration (obese hyperglycemia mice; ig 130 mg/kg once a day): 30.1 ± 4.5 mmol/L
Body weight 6 w after administration (obese hyperglycemia mice; ig 130 mg/kg once a day): 35.8 ± 1.5 g
Body weight 9 w after administration (obese hyperglycemia mice; ig 130 mg/kg once a day): 39.5 ± 1.4 g
Body weight 12 w after administration (obese hyperglycemia mice; ig 130 mg/kg once a day): 41.1 ± 1.5 g
absorbance value (mice [1]): 0.494 ± 0.134
net weight of granulation (rats [2]): 15.87 ± 3.31 mg
Propulsive rate (mice [3]): 51.69 ± 7.1 %
Rating of adhesion degree 0 (rats [4]; number of 12 rats with completely no adhesion): 1
Rating of adhesion degree III (rats [4]; number of 12 rats with more than two adhering zones): 3
Rating of adhesion degree I (rats [4]; number of 12 rats with one adhering zone): 4
Rating of adhesion degree IV (rats [4]; number of 12 rats with organs adhering to abdominal wall directly): 2
Rating of adhesion degree II (rats [4]; number of 12 rats with two adhering zones): 2
inhibition rate (mice [5]): 29.8%
swelling degree of auricle (mice [5]): 12.5 ± 2.2 mg
Volume of exudation fluid (rats [6]): 0.33 ± 0.12
WBC (rats [6]): 3.98 ± 1.64 ×109/L
Clearance index (k) (mice [7]): 0.0272 ± 0.0124
Phagocytic index (α) (mice [7]): 4.9134 ± 0.7498
Net weight of granulation (rats [8]): 15.23 ± 2.99Δ Δ mg
